Values joined by “and” are separate entries in the source; they are usually repeats but may differ in a detail not shown here. Equal values may be shown once. ± gives the expanded uncertainty stated by the source.
Conditions: Crystal; for vapor or sublimation pressure: Calculated from knudsen effusion weight loss; for Normal melting temperature: visual observation

CCc1ccc2cc3ccccc3cc2c1 [2-ethylanthracene]
Conditions | Normal melting temperature [°C] | vapor or sublimation pressure
– | 154.5 ± 0.5 | –
343.27 K | – | 0.000164 ± 8e-06 kPa and 0.000165 ± 8e-06 kPa
345.13 K | – | 0.000203 ± 1e-05 kPa and 0.0002 ± 1e-05 kPa
347.1 K | – | 0.000239 ± 1.2e-05 kPa and 0.000235 ± 1.2e-05 kPa and 0.000241 ± 1.2e-05 kPa
349.26 K | – | 0.000306 ± 1.5e-05 kPa and 0.000309 ± 1.5e-05 kPa and 0.000301 ± 1.5e-05 kPa
351.15 K | – | 0.000378 ± 1.9e-05 kPa and 0.000372 ± 1.9e-05 kPa and 0.00037 ± 1.9e-05 kPa
353.11 K | – | 0.000465 ± 2.3e-05 kPa and 0.000456 ± 2.3e-05 kPa and 0.000458 ± 2.3e-05 kPa
355.27 K | – | 0.00056 ± 2.8e-05 kPa and 0.000562 ± 2.8e-05 kPa and 0.000569 ± 2.9e-05 kPa
357.07 K | – | 0.000684 ± 3.4e-05 kPa and 0.000668 ± 3.3e-05 kPa
359.05 K | – | 0.000828 ± 4.1e-05 kPa and 0.000833 ± 4.2e-05 kPa and 0.000824 ± 4.1e-05 kPa

Cc1c2ccccc2c(C)c2ccccc12 [9,10-dimethylanthracene]
Conditions | Normal melting temperature [°C] | vapor or sublimation pressure
– | 186.4 ± 0.5 | –
363.18 K | – | 0.000229 ± 1.1e-05 kPa and 0.000242 ± 1.2e-05 kPa and 0.000213 ± 1.1e-05 kPa
365.2 K | – | 0.000287 ± 1.4e-05 kPa and 0.000302 ± 1.5e-05 kPa and 0.000271 ± 1.4e-05 kPa
367.18 K | – | 0.000344 ± 1.7e-05 kPa and 0.00036 ± 1.8e-05 kPa and 0.000332 ± 1.7e-05 kPa
369.18 K | – | 0.000444 ± 2.2e-05 kPa and 0.00041 ± 2.1e-05 kPa and 0.000425 ± 2.1e-05 kPa
371.2 K | – | 0.000498 ± 2.5e-05 kPa and 0.00053 ± 2.7e-05 kPa and 0.000494 ± 2.5e-05 kPa
373.19 K | – | 0.000613 ± 3.1e-05 kPa and 0.000654 ± 3.3e-05 kPa and 0.00061 ± 3.1e-05 kPa
375.18 K | – | 0.000736 ± 3.7e-05 kPa and 0.000761 ± 3.8e-05 kPa and 0.00071 ± 3.6e-05 kPa
377.17 K | – | 0.00088 ± 4.4e-05 kPa and 0.000913 ± 4.6e-05 kPa and 0.000841 ± 4.2e-05 kPa
378.98 K | – | 0.001057 ± 0.00011 kPa and 0.001092 ± 0.00011 kPa and 0.001008 ± 0.0001 kPa

Cc1c2ccccc2cc2ccccc12 [9-methylanthracene]
Conditions | Normal melting temperature [°C] | vapor or sublimation pressure
– | 81.7 ± 0.5 | –
329.16 K | – | 0.000185 ± 9e-06 kPa and 0.000194 ± 1e-05 kPa and 0.000184 ± 9e-06 kPa
331.19 K | – | 0.000237 ± 1.2e-05 kPa and 0.000244 ± 1.2e-05 kPa and 0.000236 ± 1.2e-05 kPa
333.17 K | – | 0.000271 ± 1.4e-05 kPa and 0.000297 ± 1.5e-05 kPa and 0.000286 ± 1.4e-05 kPa
335.16 K | – | 0.00036 ± 1.8e-05 kPa and 0.00035 ± 1.8e-05 kPa and 0.000345 ± 1.7e-05 kPa
337.15 K | – | 0.000427 ± 2.1e-05 kPa and 0.00045 ± 2.3e-05 kPa and 0.000435 ± 2.2e-05 kPa
339.16 K | – | 0.000562 ± 2.8e-05 kPa and 0.000577 ± 2.9e-05 kPa and 0.000559 ± 2.8e-05 kPa
341.17 K | – | 0.000666 ± 3.3e-05 kPa and 0.000681 ± 3.4e-05 kPa and 0.00066 ± 3.3e-05 kPa
343.21 K | – | 0.000829 ± 4.2e-05 kPa and 0.000851 ± 4.3e-05 kPa and 0.000821 ± 4.1e-05 kPa
345.19 K | – | 0.001004 ± 0.0001 kPa and 0.00104 ± 0.00011 kPa and 0.001011 ± 0.0001 kPa

— the NIST ThermoML archive (doi:10.1016/j.jct.2005.06.001)
